{"source": "patent US20180340174A1", "about": "“METHOD FOR IDENTIFICATION OF MOLECULES WITH DESIRED CHARACTERISTICS” (NANOCORE APS, priority 2014, published 2018)", "key": {"[1]": {"molecular_target": "T1, soluble epoxide hydrolase (sEH) (Homo sapiens, UniProt P34913)", "T1 sequence (P34913 1-555)": "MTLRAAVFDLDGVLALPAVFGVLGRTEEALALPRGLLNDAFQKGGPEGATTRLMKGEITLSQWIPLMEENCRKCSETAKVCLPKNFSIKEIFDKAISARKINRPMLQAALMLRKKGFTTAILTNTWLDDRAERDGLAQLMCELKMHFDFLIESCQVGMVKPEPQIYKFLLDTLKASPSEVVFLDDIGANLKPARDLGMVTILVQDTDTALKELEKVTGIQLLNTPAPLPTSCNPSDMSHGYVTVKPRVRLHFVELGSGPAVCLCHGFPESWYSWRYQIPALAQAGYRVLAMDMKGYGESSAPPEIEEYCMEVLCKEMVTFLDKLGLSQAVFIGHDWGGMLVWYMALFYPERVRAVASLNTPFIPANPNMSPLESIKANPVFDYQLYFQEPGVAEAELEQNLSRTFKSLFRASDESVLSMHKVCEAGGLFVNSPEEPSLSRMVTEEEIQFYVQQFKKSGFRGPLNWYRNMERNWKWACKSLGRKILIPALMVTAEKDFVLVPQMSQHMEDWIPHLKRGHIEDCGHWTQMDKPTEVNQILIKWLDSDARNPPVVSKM", "settings": "Litovchick 2015; cited from earlier work"}, "[2]": {"settings": "Matsuno et al. 2008; bound to PLLA (layer by layer); cited from earlier work"}, "[3]": {"settings": "Matsuno et al. 2008; bound to PDLA; cited from earlier work"}, "[4]": {"settings": "Matsuno et al. 2008; bound to PLLA (amorphous); cited from earlier work"}, "[5]": {"settings": "Matsuno et al. 2008; bound to PMMA (atactic); cited from earlier work"}, "[6]": {"settings": "Matsuno et al. 2008; bound to PLLA (melt crystallization); cited from earlier work"}, "[7]": {"settings": "Sano et al. 2005; Meyers et al. 2007; cited from earlier work"}, "[8]": {"settings": "Serizawa et al. 2007; bound to PMMA (isotactic); cited from earlier work"}, "[9]": {"settings": "Serizawa et al. 2007; bound to PMMA (syndiotactic); cited from earlier work"}, "[10]": {"settings": "Serizawa et al. 2007; bound to Polystyrene (atactic); cited from earlier work"}, "[11]": {"settings": "Serizawa et al. 2007; bound to Polystyrene (syndiotactic); cited from earlier work"}, "[12]": {"settings": "Wang et al. 2003; cited from earlier work"}, "[13]": {"settings": "Seker et al. 2011; Chen et al. 2006; cited from earlier work"}, "[14]": {"assay": "Selection of polynucleotide-tagged molecules on carbon nanotubes without and with PPyCl repeat units in the medium (Example 15.0.0.0)", "format": "binding", "description": "In this example library molecules (M) are peptides linked by […] (L) to DNA tags encoding the peptide. […] Identification of carbon nanotube binding molecules is described in Brown et al. (Small. 2008 April; 4 (4):416-20). The CNT target is prepared from single-walled carbon nanotubes (purified HiPCO, Carbon Nanotechnologies Inc., US) used as purchased. Bundles and individual tubes are suspended in dichloroethane by sonication and deposited on pieces of double side polished Si wafers. The CNT mats are inspected by scanning electron microscopy. A uniform, dense coverage on both sides of the 1 cm2 substrates is achieved by repeatedly depositing drops from the suspension, rinsing with isopropanol, and blow drying with nitrogen. Test enrichments are conducted inn a phosphate buffer (PKT). The enrichment for adhesion to CNT mats using solution conditions is done similarly to other searches for CNT binders. The population recovered from a single cycle of enrichment for binding to CNTs in a Tris-HCl buffer (TNT) differed from that obtained in PKT.\nBinding molecules, which bind efficiently to a filler (carbon nanotubes) but not to a polymer matrix (PPyCl) of a composite material, are identified essentially as described in example 1.1.1.1. […]"}, "[15]": {"settings": "Seker et al. 2011; cited from earlier work"}, "[16]": {"settings": "Serizawa et al. 2007; bound to Polystyrene (isotactic); cited from earlier work"}, "[17]": {"settings": "Islam et al. 2012; bound to Ceramic fluorapatite; cited from earlier work"}, "[18]": {"settings": "Islam et al. 2012; bound to Ceramic hydroxyl-apatite; cited from earlier work"}, "[19]": {"settings": "Serizawa et al. 2007; cited from earlier work"}, "[20]": {"settings": "Weiger et al. 2010; read-out: KD to HA; cited from earlier work"}, "[21]": {"settings": "Eijima et al. 2010; bound to PPV (linear); cited from earlier work"}, "[22]": {"settings": "Eijima et al. 2010; bound to PPV (hyper-branched); cited from earlier work"}, "[23]": {"settings": "Serizawa et al. 2007; cited from earlier work", "remark": "listed apart in the source"}, "[24]": {"assay": "Enrichment of CNT-binding peptide A2 displayed on bacteriophages versus mini-M13, blue/white colony counting"}, "[25]": {"settings": "Li et al. 2013; cited from earlier work"}}, "note": "pKd: −log10 of the molar value. Where two headings read alike, the source gives them in different places. Where no end group is shown, it is not given here.", "data": [{"molecule": "CN(CCn1cccn1)C(=O)c1ccc(-c2cccc(C(=O)NC3CCCCC3)c2)nc1", "note": "[compound 12]", "values": [{"measurement": "enrichment over two affinity-mediated selection steps compared to the average within the naïve library", "setting": "[1]", "value": "approximately 30,000 fold"}]}, {"molecule": "QLMHDYR", "values": [{"measurement": "pKd", "setting": "[2]", "value": 4.17}, {"measurement": "pKd", "setting": "[3]", "value": 4.68}, {"measurement": "pKd", "setting": "[4]", "value": 3.82}, {"measurement": "pKd", "setting": "[5]", "value": 3.74}, {"measurement": "pKd", "setting": "[6]", "value": 4.80}]}, {"molecule": "RKLPDAPGMHTW", "values": [{"measurement": "pKd", "setting": "[7]", "value": 4.89}]}, {"molecule": "SCSDCLKSVDFIPSSLASS", "values": [{"measurement": "pKd", "setting": "[7]", "value": 6.60}]}, {"molecule": "ELWRPTR", "values": [{"measurement": "pKd", "setting": "[8]", "value": 5.44}, {"measurement": "pKd", "setting": "[9]", "value": 3.82}]}, {"molecule": "YLTMPTP", "values": [{"measurement": "pKd", "setting": "[10]", "value": 10.66}, {"measurement": "pKd", "setting": "[11]", "value": 11.30}]}, {"molecule": "HWKHPWGAWDTL", "values": [{"measurement": "pKd", "setting": "[12]", "value": 4.30}]}, {"molecule": "HTAQSTA", "values": [{"measurement": "pKd", "setting": "[10]", "value": 10.85}, {"measurement": "pKd", "setting": "[11]", "value": 11.00}]}, {"molecule": "QTWPPPLWFSTS", "values": [{"measurement": "pKd", "setting": "[13]", "value": 6.09}]}, {"molecule": "polynucleotide-tagged THRTSTLDYFVI-pyrene: polynucleotide-tagged peptide-pyrene which can bind to both carbon nanotubes and PPyCl (also: polynucleotide tag, site not given here)", "values": [{"measurement": "Outcome of selection on carbon nanotubes", "setting": "[14]; first experiment, medium as in example 1.1.1.1", "value": "identified as carbon nanotube binding molecules"}, {"measurement": "Outcome of selection on carbon nanotubes", "setting": "[14]; second experiment, medium comprises repeat units of PPyCl", "value": "removed during the partitioning step"}]}, {"molecule": "CTLHVSSYC", "values": [{"measurement": "pKd", "setting": "[15]", "value": 5.96}]}, {"molecule": "FSWEAFA", "values": [{"measurement": "pKd", "setting": "[16]", "value": 10.47}, {"measurement": "pKd", "setting": "[10]", "value": 10.07}, {"measurement": "pKd", "setting": "[11]", "value": 11.21}]}, {"molecule": "KPRSVSG", "values": [{"measurement": "pKd", "setting": "[17]", "value": 5.27}, {"measurement": "pKd", "setting": "[18]", "value": 5.14}]}, {"molecule": "GETRAPL", "values": [{"measurement": "pKd", "setting": "[16]", "value": 10.44}, {"measurement": "pKd", "setting": "[10]", "value": 10.17}, {"measurement": "pKd", "setting": "[11]", "value": 11.17}]}, {"molecule": "FPGRPSP", "values": [{"measurement": "pKd", "setting": "[10]", "value": 10.51}, {"measurement": "pKd", "setting": "[11]", "value": 11.07}]}, {"molecule": "HLESTPG", "values": [{"measurement": "pKd", "setting": "[16]", "value": 10.19}, {"measurement": "pKd", "setting": "[10]", "value": 10.00}, {"measurement": "pKd", "setting": "[11]", "value": 11.10}]}, {"molecule": "HKPDANR", "values": [{"measurement": "pKd", "setting": "[19]", "value": 10.60}]}, {"molecule": "CPTSTGQAC", "values": [{"measurement": "pKd", "setting": "[15]", "value": 6.55}]}, {"molecule": "GETQCAA", "values": [{"measurement": "pKd", "setting": "[10]", "value": 10.47}, {"measurement": "pKd", "setting": "[11]", "value": 11.13}]}, {"molecule": "SVSVGMKPSPRPGGGK", "values": [{"measurement": "pKd", "setting": "[20]", "value": 4.85}]}, {"molecule": "HTDWRLGTWHETS", "values": [{"measurement": "pKd", "setting": "[21]", "value": 4.72}, {"measurement": "pKd", "setting": "[22]", "value": 5.89}]}, {"molecule": "FPGHSGP", "values": [{"measurement": "pKd", "setting": "[23]", "value": 10.00}]}, {"molecule": "ELWSIDTSAHRK", "values": [{"measurement": "pKd", "setting": "[21]", "value": 4.89}, {"measurement": "pKd", "setting": "[22]", "value": 4.57}]}, {"molecule": "CHKKPSKSC", "values": [{"measurement": "pKd", "setting": "[13]", "value": 8.39}]}, {"molecule": "THLPWQT", "values": [{"measurement": "pKd", "setting": "[23]", "value": 10.17}]}, {"molecule": "RHEPPLA", "values": [{"measurement": "pKd", "setting": "[16]", "value": 10.68}, {"measurement": "pKd", "setting": "[10]", "value": 10.25}, {"measurement": "pKd", "setting": "[11]", "value": 10.96}]}, {"molecule": "RLNPPSQMDPPF", "values": [{"measurement": "pKd", "setting": "[13]", "value": 5.08}]}, {"molecule": "IFRLSWGTYFS [A2]", "values": [{"measurement": "Enrichment fold", "setting": "[24]; 1 wash, CNT 0.02 mg/ml, 1.1E+9 bacteriophages", "value": 100, "unit": "fold"}, {"measurement": "Enrichment fold", "setting": "[24]; 3 washes, CNT 0.02 mg/ml, 1.1E+9 bacteriophages", "value": 85, "unit": "fold"}, {"measurement": "Enrichment fold", "setting": "[24]; 10 washes, CNT 0.02 mg/ml, 1.1E+9 bacteriophages", "value": 91, "unit": "fold"}, {"measurement": "Enrichment fold", "setting": "[24]; one wash, CNT 0.02 mg/ml, 1.1E+11 bacteriophages", "value": 2, "unit": "fold"}, {"measurement": "Enrichment fold", "setting": "[24]; one wash, CNT 0.2 mg/ml, 1.1E+9 bacteriophages", "value": 23, "unit": "fold"}, {"measurement": "Enrichment fold", "setting": "[24]; one wash, CNT 0.2 mg/ml, 1.1E+11 bacteriophages", "value": 7, "unit": "fold"}, {"measurement": "Enrichment fold", "setting": "[24]; one wash, CNT 2 mg/ml, 1.1E+9 bacteriophages", "value": 4, "unit": "fold"}, {"measurement": "Enrichment fold", "setting": "[24]; one wash, CNT 2 mg/ml, 1.1E+11 bacteriophages", "value": 10, "unit": "fold"}, {"measurement": "Enrichment fold", "setting": "[24]; ten washes with 1 min. sonication at 35 kHz and 160 W during washing, CNT 0.2 mg/ml, 1.1E+11 bacteriophages", "value": 15, "unit": "fold"}, {"measurement": "Enrichment fold", "setting": "[24]; ten washes, CNT 0.02 mg/ml, 1.1E+11 bacteriophages", "value": 8, "unit": "fold"}, {"measurement": "Enrichment fold", "setting": "[24]; ten washes, CNT 0.2 mg/ml, 1.1E+9 bacteriophages", "value": 17, "unit": "fold"}, {"measurement": "Enrichment fold", "setting": "[24]; ten washes, CNT 0.2 mg/ml, 1.1E+11 bacteriophages", "value": 19, "unit": "fold"}, {"measurement": "Enrichment fold", "setting": "[24]; ten washes, CNT 2 mg/ml, 1.1E+9 bacteriophages", "value": 2, "unit": "fold"}, {"measurement": "Enrichment fold", "setting": "[24]; ten washes, CNT 2 mg/ml, 1.1E+11 bacteriophages", "value": 3, "unit": "fold"}, {"measurement": "Enrichment fold", "setting": "[24]; three washes with 1 min. sonication at 35 kHz and 160 W during washing, CNT 0.2 mg/ml, 1.1E+11 bacteriophages", "value": 17, "unit": "fold"}, {"measurement": "Enrichment fold", "setting": "[24]; three washes, CNT 0.02 mg/ml, 1.1E+11 bacteriophages", "value": 16, "unit": "fold"}, {"measurement": "Enrichment fold", "setting": "[24]; three washes, CNT 0.2 mg/ml, 1.1E+9 bacteriophages", "value": 16, "unit": "fold"}, {"measurement": "Enrichment fold", "setting": "[24]; three washes, CNT 0.2 mg/ml, 1.1E+11 bacteriophages", "value": 16, "unit": "fold"}, {"measurement": "Enrichment fold", "setting": "[24]; three washes, CNT 2 mg/ml, 1.1E+9 bacteriophages", "value": 2, "unit": "fold"}, {"measurement": "Enrichment fold", "setting": "[24]; three washes, CNT 2 mg/ml, 1.1E+11 bacteriophages", "value": 4, "unit": "fold"}, {"measurement": "pKd", "setting": "[25]", "value": 4.70}]}]}
